Legend:
[1] = system: T98G cells; assay: Crystal violet cell viability, T98G glioma cells (single agents and combinations)
Description: (§1) A172 and U87MG cells were cultured in DMEM-Eagle medium supplemented with 4 mmol/L L-glutamine, 100 units/ml penicillin and 100 μg/ml streptomycin, and 10% FBS Charcoal Stripped (Biological Industries, Israel). The T98G cells were cultured in Eagle's minimum essential medium supplemented with 4 mmol/L L-glutamine, 100 units/ml penicillin and 100 μg/ml streptomycin. To avoid the influence of FBS derived steroid hormone on AR, the cell media were supplemented with 10% charcoal/dextran-treated (stripped) FBS (Biological Industries). The cells were maintained in a humidified incubator at 37° C. in 5% CO2.
The effect of combination therapies that involve anti-AR signaling agents together with agents that target EGFR on AR modulation was examined in glial tumor cells expressing a ligand independent AR splice variant.

[2] = system: A172 cells; assay: Crystal violet cell viability, A172 glioma cells; type: cell-based
Description: as §1

[3] = system: U87MG cells; assay: Crystal violet cell viability, U87MG glioma cells; type: cell-based, human
Description: as §1

[4] = Homo sapiens, 72 h, read-out: Cell viability, percentage of cells treated with vehicle
[5] = Homo sapiens, 72 h, read-out: Cell viability, percentage of cells treated with DHT

SMILES: C[C@]12CCC(=O)C[C@@H]1CC[C@@H]1[C@@H]2CC[C@]2(C)[C@@H](O)CC[C@@H]12 [DHT, 5α-dihydrotestosterone]
- Effect of DHT on cell viability versus vehicle ([1]; 10 μM DHT, vehicle 0.15% ETOH): no effect on cell viability
- Effect of DHT on cell viability versus vehicle ([2]; A172, 10 μM DHT, vehicle 0.15% ETOH): no effect on cell viability
- Effect of DHT on cell viability versus vehicle ([3]; 10 μM DHT, vehicle 0.15% ETOH): no effect on cell viability

SMILES: CN(C)C/C=C/C(=O)Nc1cc2c(Nc3ccc(F)c(Cl)c3)ncnc2cc1O[C@H]1CCOC1 [afatinib]
- viability at 1.25 µM [1, 4]: 92%
- viability at 5 µM [1, 4]: 47%

SMILES: CC(O)(CS(=O)(=O)c1ccc(F)cc1)C(=O)Nc1ccc(C#N)c(C(F)(F)F)c1 (stereo not shown) [bicalutamide]
- viability at 20 µM [1, 5]: 90%
- viability at 80 µM [1, 5]: 59%
- viability at 20 µM ([2]; Homo sapiens, A 172, A172, 20 uM, 72 hrs, with 10 μM DHT, read-out: Cell viability, percentage of cells treated with DHT): 90%
- viability at 80 µM ([2]; Homo sapiens, A 172, A172, 80 uM, 72 hrs, with 10 μM DHT, read-out: Cell viability, percentage of cells treated with DHT): 43%
- viability at 20 µM ([3]; Homo sapiens, U-87 MG, 20 uM, 72 hrs, with 10 μM DHT, read-out: Cell viability, percentage of cells treated with DHT): 83%
- viability at 80 µM ([3]; Homo sapiens, U-87 MG, 80 uM, 72 hrs, with 10 μM DHT, read-out: Cell viability, percentage of cells treated with DHT): 31%

SMILES: C#Cc1cccc(Nc2ncnc3cc(OCCOC)c(OCCOC)cc23)c1 [erlotinib]
- viability at 1.25 µM [1, 4]: 94%
- viability at 10 µM [1, 4]: 63%

From patent US11478453B2, “Treatment for glioblastoma” (HADASIT MEDICAL RESEARCH SERVICES AND DEVELOPMENT LTD., priority 2016, dated 2022)
